According to patent publication US9000184B2, “Cyclohexane-1,2′-naphthalene-1′,2″-imidazol compounds and their use as BACE inhibitors” (AstraZeneca AB, priority 2012, dated 2015):

Assays:
[1] = test system: sAPPβ release, SH-SY5Y cells; assay: sAPPβ release assay; assay type: cell-based; conditions: 17 h incubation, MSD detection
Experimental: SH-SY5Y cells were cultured in DMEM/F-12 with Glutamax, 10% FCS and 1% non-essential amino acids and cryopreserved and stored at −140° C. at a concentration of 7.5-9.5×10^6 cells per vial. Thaw cells and seed at a conc. of around 10000 cells/well in DMEM/F-12 with Glutamax, 10% FCS and 1% non-essential amino acids to a 384-well tissue culture treated plate, […] cell susp/well. The cell plates were then incubated for 7-24 h at 37° C., 5% CO2. The cell medium was removed, followed by addition of 30 μL compound diluted in DMEM/F-12 with Glutamax, 10% FCS, 1% non-essential amino acids and 1% PeSt to a final conc. of 1% DMSO. The compounds were incubated with the cells for 17 h (overnight) at 37° C., 5% CO2. Meso Scale Discovery (MSD) plates were used for the detection of sAPPβ release. MSD sAPPβ plates were blocked in 1% BSA in Tris wash buffer (40 μL/well) for 1 h on shake at r.t. and washed 1 time in Tris wash buffer (40 μL/well). 20 μL of medium was transferred to the pre-blocked and washed MSD sAPPβ microplates, and the cell plates were further used in an ATP assay to measure cytotoxicity. The MSD plates were incubated with shaking at r.t. for 2 h and the media discarded. 10 μL detection antibody was added (1 nM) per well followed by incubation with shaking at r.t. for 2 h and then discarded. 40 μL Read Buffer was added per well and the plates were read in a SECTOR Imager.

human β-Secretase [2] = molecular target: T1, human β-Secretase (Homo sapiens (Human), UniProt P56817); assay: TR-FRET assay; assay type: biochemical; conditions: sBACE-Fc 2.7 μg/ml, substrate 100 nM, pH 4.5, 15 minutes at RT
Experimental: The β-secretase enzyme used in the TR-FRET is prepared as follows:
(§1) The cDNA for the soluble part of the human β-Secretase (AA 1-AA 460) was cloned using the ASP2-Fc10-1-IRES-GFP-neoK mammalian expression vector. The gene was fused to the Fc domain of IgG1 (affinity tag) and stably cloned into HEK 293 cells.
(§2) The enzyme (truncated form) was diluted to 6 μg/mL (stock 1.3 mg/mL) and the TruPoint BACE1 Substrate to 200 nM (stock 120 μM) in reaction buffer (NaAcetate, chaps, triton x-100, EDTA pH4.5). Enzyme and compound in dimethylsulphoxide (final DMSO concentration 5%) was mixed and pre-incubated for 10 minutes at RT. Substrate was then added and the reaction was incubated for 15 minutes at RT. The reaction was stopped with the addition of 0.35 vol Stop solution (NaAcetate, pH 9). The fluorescence of the product was measured on a Victor II plate reader with excitation wavelengths of 340-485 nm and emission wavelengths of 590-615 nm. […] The dimethylsulphoxide control, instead of test compound, defined the 100% activity level and 0% activity was defined by wells lacking enzyme (replaced with reaction buffer) or by a saturating dose of a known inhibitor, 2-amino-6-[3-(3-methoxyphenyl)phenyl]-3,6-dimethyl-5H-pyrimidin-4-one.

human β-Secretase [3] = molecular target: T1, human β-Secretase; assay: Diluted TR-FRET assay; assay type: biochemical; conditions: footnote a: diluted FRET assay, 50 times less enzyme, 6.5 h reaction time at r.t.; read-out: IC50 in TR-FRET assay (IC50 from the diluted FRET assay)
Experimental: as §1, §2
Compounds with a high affinity were further tested in a diluted TR-FRET assay, conditions as described above for the TR-FRET assay, but with 50 times less enzyme and a 6.5 h long reaction time at r.t. in the dark.

T1 sequence (P56817 22-460): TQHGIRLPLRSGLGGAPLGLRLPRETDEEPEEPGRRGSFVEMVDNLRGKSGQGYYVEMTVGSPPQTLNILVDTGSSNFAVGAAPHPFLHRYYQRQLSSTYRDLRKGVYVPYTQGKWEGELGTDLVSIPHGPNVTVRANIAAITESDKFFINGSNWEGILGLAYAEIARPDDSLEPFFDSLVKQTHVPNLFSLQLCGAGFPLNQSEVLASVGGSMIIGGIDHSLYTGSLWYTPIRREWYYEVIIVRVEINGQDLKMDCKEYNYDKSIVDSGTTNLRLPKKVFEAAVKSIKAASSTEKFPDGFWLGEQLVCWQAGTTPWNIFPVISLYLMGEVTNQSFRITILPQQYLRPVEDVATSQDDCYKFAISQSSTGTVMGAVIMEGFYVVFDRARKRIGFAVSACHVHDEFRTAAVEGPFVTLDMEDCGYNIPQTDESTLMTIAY

Row | Compound | IC50 ([1]; Homo sapiens) | IC50 (human β-Secretase [2]) | IC50 [1] | IC50 (human β-Secretase [3])
1 | CC1=NC2(N=C1N)c1cc(-c3cc(F)cc(F)c3)ccc1CCC21CC1 (centres unmarked) [Example 3, 7′-(3,5-Difluorophenyl)-5″-methyl-3′,4′-dihydrodispiro[cyclopropane-1,2′-naphthalene-1′,2″-imidazol]-4″-amine] | 0.118 µM | 0.13 µM | – | –
2 | CC#Cc1cncc(-c2ccc3c(c2)C2(N=C(C)C(N)=N2)[C@]2(CC3)CC[C@H](OC)CC2)c1 (single isomer, unassigned; isomer 1) [8, isomer 1] | – | 0.212 µM | 0.081 µM | –
3 | CO[C@H]1CC[C@@]2(CCc3ccc(-c4cc(Cl)cc(C#N)c4)cc3C23N=C(C)C(N)=N3)CC1 (single isomer, unassigned; isomer 2) [10, isomer 2] | – | 0.392 µM | 0.092 µM | –
4 | CO[C@H]1CC[C@]2(CCc3ccc(-c4cncc(Cl)c4)cc3C23N=C(C)C(N)=N3)CC1 (single isomer, unassigned; isomer 2) [7, isomer 2] | – | 0.333 µM | 0.019 µM | –
5 | CO[C@H]1CC[C@]2(CCc3ccc(Br)cc3C23N=C(C)C(N)=N3)CC1 (single isomer, unassigned; isomer 2) [5, isomer 2] | – | 8.92 µM | – | –
6 | CC#Cc1cncc(-c2ccc3c(c2)C2(N=C(C)C(N)=N2)[C@]2(CC3)CC[C@@H](OC)CC2)c1 (single isomer, unassigned; isomer 2) [8, isomer 2] | – | 0.019 µM | 0.0024 µM | –
7 | CO[C@H]1CC[C@@]2(CCc3ccc(Br)cc3C23N=C(C)C(N)=N3)CC1 (single isomer, unassigned; isomer 1) [5, isomer 1] | – | 0.411 µM | 0.078 µM | –
8 | CC1=NC2(N=C1N)c1cc(-c3cc(F)cc(C#N)c3)ccc1CCC21CC1 (centres unmarked) [Example 2, 3-(4″-Amino-5″-methyl-3′,4′-dihydrodispiro[cyclopropane-1,2′-naphthalene-1′,2″-imidazol]-7′-yl)-5-fluorobenzonitrile] | 0.023 µM | 0.079 µM | – | –
9 | CO[C@H]1CC[C@]2(CCc3ccc(-c4cc(Cl)cc(C#N)c4)cc3C23N=C(C)C(N)=N3)CC1 (single isomer, unassigned; isomer 1) [11, isomer 1] | – | – | 0.0045 µM | 0.0036 µM
10 | COC1CCC2(CCc3ccc(-c4cc(Cl)cc(C#N)c4)cc3C23N=C(C)C(N)=N3)CC1 (single isomer, unassigned; isomer 1) [10, isomer 1] | – | – | 0.0031 µM | 0.0057 µM

Results, then the compound that gave them:

Row | IC50 ([1]; Homo sapiens) | IC50 (human β-Secretase [2]) | IC50 [1] | IC50 (human β-Secretase [3]) | Compound
11 | – | > 5 µM | – | – | CO[C@H]1CC[C@@]2(CCc3ccc(-c4cc(Cl)cc(C#N)c4)cc3[C@@]23N=C(C)C(N)=N3)CC1 (single isomer, unassigned; isomer 2) [11, isomer 2]
12 | 0.016 µM | – | – | 0.015 µM | CC1=NC2(N=C1N)c1cc(-c3cc(Cl)cc(C#N)c3)ccc1CCC21CC1 (centres unmarked) [Example 9, 3-(4″-Amino-5″-methyl-3′,4′-dihydrodispiro[cyclopropane-1,2′-naphthalene-1′,2″-imidazol]-7′-yl)-5-chlorobenzonitrile]
13 | 0.011 µM | – | – | – | CC1=NC2(N=C1N)c1cc(-c3cncc(Cl)c3)ccc1CCC21CC1 (centres unmarked) [Example 4, 7′-(5-Chloropyridin-3-yl)-5″-methyl-3′,4′-dihydrodispiro[cyclopropane-1,2′-naphthalene-1′,2″-imidazol]-4″-amine]
14 | – | – | 0.001 µM | 0.005 µM | COc1cc(C#N)cc(-c2ccc3c(c2)C2(N=C(C)C(N)=N2)[C@]2(CC3)CC[C@@H](OC)CC2)c1 (single isomer, unassigned; isomer 1) [6, isomer 1]
15 | – | 0.587 µM | 0.08 µM | – | COc1cc(C#N)cc(-c2ccc3c(c2)C2(N=C(C)C(N)=N2)[C@]2(CC3)CC[C@H](OC)CC2)c1 (single isomer, unassigned; isomer 2) [6, isomer 2]
16 | – | – | 0.0025 µM | 0.014 µM | CO[C@H]1CC[C@@]2(CCc3ccc(-c4cncc(Cl)c4)cc3C23N=C(C)C(N)=N3)CC1 (single isomer, unassigned; isomer 1) [7, isomer 1]
